Each molecule was assayed on epithelial breast carcinoma cell line (MDAMB-435) (assay: effect of compounds on growth of epithelial breast carcinoma cell line MDAMB-435 (MTT, 5 days)). Conditions: Homo sapiens, MDA-MB-435, 120 h, MDAMB-435 cells, 5 days post drug addition, 0.1% DMSO.
Type: cell-based
Description: The epithelial breast carcinoma cell line (MDAMB-435) was purchased from ATCC (American Type Cell Culture Collection) and was grown in culture in medium as recommended by ATCC. For analysis of the effect of various compounds on growth of these cells, the cells were plated at a concentration of 1500 cells/well in a 96 well tissue culture plate ("test plate). The day after the cells were plated, the compounds to be analyzed were dissolved in 100% DMSO (dimethyl sulfoxide) to yield at 10 mM stock solution. Each compound was diluted in H2 O to 1 mM and was added to triplicate wells in the first row of a 96 well master plate which contains medium to yield a final concentration of 40 μM. The compounds were then serially diluted in medium in the "master plate". The diluted compound(s) were then transferred to test plates containing cells. A row of vehicle "control cells" received DMSO. The final concentration of DMSO in each well was 0.1%. 5 days post drug addition, the plate was analyzed as follows:
MTT (3-(4-5 methyl thiazole-2-yl)-2,5-diphenyl tetrazolium bromide; thiazolyl blue) was added to each well to yield a final concentration of 1 mg/ml. The plate was then incubated at 37° C. for 21/2-3 hours. The MTT containing medium was then removed and 50 μl of 100% ethanol was added to each well to dissolve the formazan. The absorbences were then read using an automated plate reader (Bio-tek microplate reader).
IC50 's were calculated using the Reed and Munsch equation, see Am. J. Hygiene Vol. 27 pgs. 493-497, 1938.

Row | SMILES | IC50 [nM]
1 | Cn1cc(C2=C(c3cn(C)c4cc([N+](=O)[O-])ccc34)C(=O)NC2=O)c2cc(Cl)ccc21 [H Cl H NO2, 3-(5-Chloro-1-methyl-1H-indol-3-yl)-4-(l-methyl-6-nitro-1H-indol-3-yl)-pyrrole-2,5-dione] | 170
2 | Cn1cc(C2=C(c3cn(C)c4cc(N)ccc34)C(=O)NC2=O)c2ccc(N)cc21 [H H NH2 NH2, 3,4-bis-(1-methyl-6-amino-1H-indol-3-yl)-pyrrole-2,5-dione] | 700
3 | COC(=O)c1ccc2c(C3=C(c4cn(C)c5cc(N)ccc45)C(=O)NC3=O)cn(C)c2c1 [H H NH2 CO2 CH3, 3-[4-(6-Amino-1-methyl-1H-indol-3-yl)-2,5-dioxo-2,5-dihydro-1H-pyrrol-3-yl] -1-methyl-1H-indole-6-carboxylic acid methyl ester] | 50
4 | COc1ccc2c(C3=C(c4cn(C)c5cc(F)ccc45)C(=O)NC3=O)cn(C)c2c1 [H H F OCH3, 3-(6-fluoro-1-methyl-1H-indol-3-yl)-4-(6-methoxy-1-methyl-1H-indol-3-yl)-pyrrole-2,5-dione] | 20
5 | COc1ccc2c(c1)c(C1=C(c3cn(C)c4cc(C#N)ccc34)C(=O)NC1=O)cn2C [H CH3 O H CN, 3-[4-(5-methoxy-1-methyl-1H-indol-3-yl)-2,5-dioxo-2,5-dihydro-1H-pyrrol-3-yl]-1-methyl-1H-indole-6-carbonitrile] | 70
6 | Cn1cc(C2=C(c3cn(C)c4cc(F)ccc34)C(=O)NC2=O)c2ccc(N)cc21 [H H NH2 F, 3-(6-Amino-1-methyl-1H-indol-3-yl)-4-(6-fluoro-1-methyl-1H-indol-3-yl)-pyrrole-2,5-dione] | 42
7 | CC(=O)Nc1ccc2c(C3=C(c4cn(C)c5cc([N+](=O)[O-])ccc45)C(=O)NC3=O)cn(C)c2c1 [H H CH3 CONH NO2] | 20
8 | COc1ccc2c(c1)c(C1=C(c3cn(C)c4cc(Cl)ccc34)C(=O)NC1=O)cn2C [H CH3 O H Cl, 3-(6-Chloro-1-methyl-1H-indol-3-yl)-4-(5-methoxy-1-methyl-1H-indol-3-yl)-pyrrole-2,5-dione] | 200
9 | CCOc1ccc2c(C3=C(c4cn(C)c5cc(N)ccc45)C(=O)NC3=O)cn(C)c2c1 [H H NH2 EtO] | 12
10 | Cn1cc(C2=C(c3cn(C)c4cc([N+](=O)[O-])ccc34)C(=O)NC2=O)c2ccc(F)cc21 [H H NO2 F, 3-(6-fluoro-1-methyl-1H-indol-3-yl)-4-(1-methyl-6-nitro-1H-indol-3-yl)-pyrrole-2,5-dione] | 70
11 | Cn1cc(C2=C(c3cn(C)c4cc([N+](=O)[O-])ccc34)C(=O)NC2=O)c2ccc(N)cc21 [H H NH2 NO2, 3-(6-Amino-1-methyl-1H-indol-3-yl)-4-(1-methyl-6-nitro-1H-indol-3-yl)-pyrrole-2,5-dione] | < 10
12 | Cn1cc(C2=C(c3cn(C)c4cc([N+](=O)[O-])ccc34)C(=O)NC2=O)c2cc([N+](=O)[O-])ccc21 [H NO2 H NO2, 3-(1-methyl-5-nitro-1H-indol-3-yl)-4-(1-methyl-6-nitro-1H-indol-3-yl)-pyrrole-2,5-dione] | 830
13 | Cc1ccc2c(C3=C(c4cn(C)c5cc(C#N)ccc45)C(=O)NC3=O)cn(C)c2c1 [H H CH3 CN, 3-[4-(1,6-dimethyl-1H-indol-3-yl)-2,5-dioxo-2,5-dihydro-1H-pyrrole-3-yl]-1-methyl-1H-indole-6-carbonitrile] | 10
14 | Cn1cc(C2=C(c3cn(C)c4cc(Br)ccc34)C(=O)NC2=O)c2ccc(N)cc21 [H H NH2 Br, 3-(6-Amino-1-methyl-1H-indol-3-yl)-4-(6-bromo-1-methyl-1H-indol-3-yl)-pyrrole-2,5-dione] | 4
15 | COc1ccc2c(C3=C(c4cn(C)c5cc([N+](=O)[O-])ccc45)C(=O)NC3=O)cn(C)c2c1 [H H OCH3 NO2, 3-(6-methoxy-1-methyl-1H-indol-3-yl)-4-(1-methyl-6-nitro-1H-indol-3-yl)-pyrrole-2,5-dione] | 7
16 | Cc1ccc2c(c1)c(C1=C(c3cn(C)c4cc([N+](=O)[O-])ccc34)C(=O)NC1=O)cn2C [H CH3 H NO2, 3-(1,5-Dimethyl-1H-indol-3-yl)-4-(1-methyl-6-nitro-1H-indol-3-yl)-pyrrole-2,5-dione] | 130
17 | COc1ccc2c(C3=C(c4cn(C)c5cc(N=[N+]=[N-])ccc45)C(=O)NC3=O)cn(C)c2c1 [H H N3 CH3 O, 3-(6-Azido-1-methyl-1H-indol-3-yl)-4-(6-methoxy-1-methyl-1H-indol-3-yl)-pyrrole-2,5,-dione] | 70

Row | SMILES | IC50 [nM]
18 | COc1ccc2c(C3=C(c4cn(C)c5cc(C)ccc45)C(=O)NC3=O)cn(C)c2c1 [H H CH3 OCH3, 3-(1,6-dimethyl-1H-indol-3-yl)-4-(6-methoxy-1-methyl-1H-indol-3-yl)-pyrrole-2,5-dione] | 20
19 | CCOc1ccc2c(C3=C(c4cn(C)c5ccc(OC)cc45)C(=O)NC3=O)cn(C)c2c1 [H CH3 O H EtO, 3-(6-Ethoxy-1-methyl-1H-indol-3-yl)-4-(5-methoxy-1-methyl-1H-indol-3-yl)-pyrrole-2,5-dione] | 70
20 | Cc1ccc2c(C3=C(c4cn(C)c5cc([N+](=O)[O-])ccc45)C(=O)NC3=O)cn(C)c2c1 [H H CH3 NO2, 3-(1,6-dimethyl-1H-indol-3-yl)-4-(1-methyl-6-nitro-1H-indol-3-yl)-pyrrole-2,5-dione] | 70
21 | COC(=O)c1ccc2c(C3=C(c4cn(C)c5cc([N+](=O)[O-])ccc45)C(=O)NC3=O)cn(C)c2c1 [H H CO2 CH3 NO2, 1-methyl-3[4-(1-methyl-6-nitro-1H-indol-3-yl)-2,5-dioxo-2,5-dihydro-1H-pyrrole-3-yl]-1H-indole-6-carboxylic acid methyl ester] | 7
22 | COc1ccc2c(C3=C(c4cn(C)c5cccc(F)c45)C(=O)NC3=O)cn(C)c2c1 [F H H CH3 O, 3-(4-Fluoro-1-methyl-1H-indol-3-yl)-4-(6-methoxy-1-methyl-1H-indol-3-yl)-pyrrole-2,5-dione] | 200
23 | Cn1cc(C2=C(c3cn(C)c4cccc(F)c34)C(=O)NC2=O)c2ccc([N+](=O)[O-])cc21 [F H H NO2, 3-(4-Fluoro-1-methyl-1H-indol-3-yl)-4-(1-methyl-6-nitro-1H-indol-3-yl)-pyrrole-2,5-dione] | 50
24 | CCOc1ccc2c(C3=C(c4cn(C)c5cccc(F)c45)C(=O)NC3=O)cn(C)c2c1 [F H H EtO, 3-(4-Fluoro-1-methyl-1H-indol-3-yl)-4-(6-ethoxy-1-methyl-1H-indol-3-yl)-pyrrole-2,5-dione] | 32
25 | Cn1cc(C2=C(c3cn(C)c4cc([N+](=O)[O-])ccc34)C(=O)NC2=O)c2ccc(C#N)cc21 [H H CN NO2, 1-methyl-3-[4-(1-methyl-6-nitro-1H-indol-3-yl)-2,5-dioxo-2,5-dihydro-1H-pyrrol-3-yl]1H-indole-6-carbonitrile] | 50
26 | COc1ccc2c(C3=C(c4cn(C)c5cc(N)ccc45)C(=O)NC3=O)cn(C)c2c1 [H H NH2 CH3 O, 3-(6-Amino-1-methyl-1H-indol-3-yl)-4-(6-methoxy-1-methyl-1H-indol-3-yl)-pyrrole-2,5-dione] | 15
27 | Cn1cc(C2=C(c3cn(C)c4cc(C#N)ccc34)C(=O)NC2=O)c2ccc(N)cc21 [H H NH2 CN, 3-[4-(6-Amino-1-methyl-1H-indol-3-yl)-2,5-dioxo-2,5-dihydro-1H-pyrrol-3-yl]-1-methyl-1H-indole-6-carbonitrile] | < 10
28 | CSc1ccc2c(C3=C(c4cn(C)c5cc([N+](=O)[O-])ccc45)C(=O)NC3=O)cn(C)c2c1 [H H NO2 SCH3, 3-(1-Methyl-6-methylsulfanyl-1H-indol-3-yl)-4-(1-methyl-6-nitro-1H-indol-3-yl)-pyrrole-2,5-dione] | 9
29 | Cn1cc(C2=C(c3cn(C)c4cc([N+](=O)[O-])ccc34)C(=O)NC2=O)c2ccc(NC(=O)C(F)(F)F)cc21 [H H CF3 CONH NO2, N-{1-methyl-3-[4-(1-methyl-6-nitro-1H-indol-3-yl)-2,5-dioxo-2,5-dihydro-1H-pyrrol-3-yl]-1H-indol-3-yl}-trifluoroacetamide] | 12
30 | COc1ccc2c(C3=C(c4cn(C)c5cccc(OC)c45)C(=O)NC3=O)cn(C)c2c1 [CH3 O H H CH3 O, 3-(6-Methoxy-1-methyl-1H-indol-3-yl)-4-(4-methoxy-1-methyl-1H-indol-3-yl)-pyrrole-2,5-dione] | 70
31 | Cn1cc(C2=C(c3cn(C)c4cc([N+](=O)[O-])ccc34)C(=O)NC2=O)c2ccc(Br)cc21 [H H Br NO2, 3-(6-Bromo-1-methyl-1H-indol-3-yl)-4-(1-methyl-6-nitro-1H-indol-3-yl)-pyrrole-2,5-dione] | 70
32 | Cn1cc(C2=C(c3cn(C)c4cc(Cl)ccc34)C(=O)NC2=O)c2ccc(N)cc21 [H H NH2 Cl, 3-(6-Amino-1-methyl-1H-indol-3-yl)-4-(6-chloro-1-methyl-1H-indol-3-yl)-pyrrole-2,5-dione] | 12
33 | CCOCCOCCOc1ccc2c(C3=C(c4cn(C)c5cc([N+](=O)[O-])ccc45)C(=O)NC3=O)cn(C)c2c1 [H H Et(OCH2 CH2)2 O NO2, 3-{6-[2-(2-Ethoxy-ethoxy)-ethoxy]-1-methyl-1H-indol-3-yl}-4-(1-methyl-6-nitro-1H-indol-3-yl)-pyrrole-2,5-dione] | 40
34 | COc1ccc2c(C3=C(c4cn(C)c5cc(NC=O)ccc45)C(=O)NC3=O)cn(C)c2c1 [H H CHONH CH3 O] | 10

— US6228877A, “Substituted pyrroles” (Hoffmann-La Roche Inc., priority 1998, dated 2001)
